For test [1] the following is noted: in human trials; cited from earlier work.
The conditions of test [2]: in the rat; cited from earlier work.
Another test has as its target T1, HMG-CoA reductase (Rattus norvegicus, UniProt P51639).
T1 construct: solubilized enzyme preparations from liver microsomes of rats; from tissue; host or cells: liver microsomes of cholestyramine-induced rats
T1 sequence (P51639 1-887): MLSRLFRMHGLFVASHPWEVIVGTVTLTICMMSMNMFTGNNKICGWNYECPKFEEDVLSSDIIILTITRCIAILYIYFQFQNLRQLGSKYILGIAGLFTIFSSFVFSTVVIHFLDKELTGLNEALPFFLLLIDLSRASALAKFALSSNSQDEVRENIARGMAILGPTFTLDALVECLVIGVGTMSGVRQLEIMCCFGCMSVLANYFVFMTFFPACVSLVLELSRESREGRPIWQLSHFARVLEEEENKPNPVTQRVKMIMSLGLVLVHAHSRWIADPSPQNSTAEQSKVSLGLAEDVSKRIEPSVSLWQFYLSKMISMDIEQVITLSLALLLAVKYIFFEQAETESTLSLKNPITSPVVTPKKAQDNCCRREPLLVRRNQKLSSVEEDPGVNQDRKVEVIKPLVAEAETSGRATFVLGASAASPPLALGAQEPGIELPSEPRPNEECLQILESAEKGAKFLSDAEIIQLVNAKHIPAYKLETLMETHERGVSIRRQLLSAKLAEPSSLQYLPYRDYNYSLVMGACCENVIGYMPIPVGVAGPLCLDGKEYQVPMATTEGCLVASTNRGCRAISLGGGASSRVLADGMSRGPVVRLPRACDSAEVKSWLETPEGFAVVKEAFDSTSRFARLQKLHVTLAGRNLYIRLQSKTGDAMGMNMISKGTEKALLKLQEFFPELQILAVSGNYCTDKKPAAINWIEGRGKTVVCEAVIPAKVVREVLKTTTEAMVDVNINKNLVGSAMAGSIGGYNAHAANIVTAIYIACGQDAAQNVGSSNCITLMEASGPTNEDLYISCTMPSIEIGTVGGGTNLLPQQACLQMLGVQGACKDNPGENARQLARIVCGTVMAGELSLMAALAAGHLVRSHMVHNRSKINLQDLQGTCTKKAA
In words: HMG-CoA reductase activity in solubilized enzyme preparations from liver microsomes of rats. Type of test: biochemical. Particulars: 14C-HMG-CoA substrate, mean from 3 parallel samples, read-out: IC50 [M], inhibition of HMG-CoA reductase. As for the experimental part:
1. HMG-CoA reductase activity in enzyme preparations
The HMG-CoA reductase activity was measured on solubilized enzyme preparations from liver microsomes of rats which, after the day/night rhythm had been changed, were induced with cholestyramine (®Cuemid). The substrate used was (S,R) ^14 C-HMG-CoA, and the concentration of NADPH was maintained during the incubation by a regenerating system. ^14 C-Mevalonate was removed from the substrate and other products (for example ^14 C-HMG) by column elution, the elution profile for each individual sample being determined. Constant inclusion of ^3 H-mevalonate was dispensed with because the determination was of the relative inhibitory effect. In each series of tests, the control containing no enzyme, and the normal mixture containing enzyme (=100%) and those with added products, final concentration 10^-5 to 10^-9 M, were treated together. Each individual figure was formed as the mean from 3 parallel samples. The signficance of the differences in the means between samples containing no product and those containing product was assessed by the t test.
Using the method described above, the following figures for the inhibition of HMG-CoA reductase were determined for the compounds according to the invention, for example: […]

The target of test [3] is T2, HMG-CoA reductase (in HEP-G2 cells) (Homo sapiens, UniProt P04035).
T2 construct: endogenous in cells; host or cells: HEP-G2 cells
T2 sequence (P04035 1-888): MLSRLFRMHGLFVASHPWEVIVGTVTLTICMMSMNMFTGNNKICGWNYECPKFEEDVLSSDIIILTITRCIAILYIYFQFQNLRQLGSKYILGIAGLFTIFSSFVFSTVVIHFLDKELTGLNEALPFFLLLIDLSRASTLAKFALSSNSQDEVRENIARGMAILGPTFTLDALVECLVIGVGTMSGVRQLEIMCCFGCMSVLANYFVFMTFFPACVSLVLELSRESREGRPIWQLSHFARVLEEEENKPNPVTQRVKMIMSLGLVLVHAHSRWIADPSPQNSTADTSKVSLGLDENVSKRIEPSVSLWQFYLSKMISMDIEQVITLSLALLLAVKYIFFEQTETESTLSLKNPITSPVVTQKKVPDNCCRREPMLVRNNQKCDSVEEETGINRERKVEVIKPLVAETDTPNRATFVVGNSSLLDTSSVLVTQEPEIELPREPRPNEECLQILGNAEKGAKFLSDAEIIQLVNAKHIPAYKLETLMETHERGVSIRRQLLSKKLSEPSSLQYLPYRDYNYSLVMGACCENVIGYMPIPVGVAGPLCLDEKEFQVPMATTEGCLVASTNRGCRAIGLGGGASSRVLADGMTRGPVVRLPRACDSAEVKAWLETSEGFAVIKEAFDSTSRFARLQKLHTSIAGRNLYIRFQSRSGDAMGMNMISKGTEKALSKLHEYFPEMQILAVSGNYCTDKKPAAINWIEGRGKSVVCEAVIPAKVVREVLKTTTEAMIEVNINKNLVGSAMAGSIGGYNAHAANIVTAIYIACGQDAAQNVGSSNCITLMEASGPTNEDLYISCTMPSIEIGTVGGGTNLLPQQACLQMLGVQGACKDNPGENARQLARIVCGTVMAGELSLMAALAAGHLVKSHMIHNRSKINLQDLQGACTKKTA
In words: Suppression or inhibition of HMG-CoA reductase in cell cultures (HEP-G2 cells; method described for fibroblasts, L cells). Type of test: cell-based. As for the experimental part:
2. Suppression or inhibition of HMG-CoA reductase in cell cultures of fibroblasts.
Monolayers of fibroblasts (L cells) in lipoprotein-free nutrient medium were incubated with appropriate concentrations of test substances for a specified period (for example 3 hours) and then the HMG-CoA reductase activity of the cells was determined by modification of the method of Chang et al. (J. Biol. Chem. 256, 6174 (1981)). For this purpose, the cell extracts were incubated with D,L-[^3 H]-HMG-CoA, and the product [^3 H]-mevalonate formed from the cells by the action of the HMG-CoA reductase activity present was, after cyclization to [^3 H]-mevalonolactone, separated from the starting material by thin-layer chromatography and, by use of an internal standard of [^14 C]-mevalonate, the amount of [^3 H]-mevalonate formed in unit time was determined and related to the amount of cellular protein.

Test [4] has as its system 3-hydroxy-3-methylglutaryl-coenzyme-A reductase (HMG-CoA reductase). Particulars: in words; cited from earlier work.

Structures are written as SMILES. Read-outs that look alike come from different tables or passages of the source.

The values that follow come from patent US4914127A, “3-Demethylmevalonic acid derivatives, a process for their preparation pharmaceutical products based on these compounds, their use and intermediates” (Hoechst Aktiengesellschaft, priority 1985, dated 1990).

Regarding `CC(O)(CC(=O)O)CC(=O)O` [3-Hydroxy-3-methylglutaric acid], the cholesterol-lowering action entry in test [1] and in test [2] was “significant cholesterol-lowering action” in each case.

Consider `O=C1C[C@H](O)C[C@@H](/C=C/c2c(Cl)cccc2Cc2ccc(Cl)cc2)O1` [16 ab], for which the IC50 on HMG-CoA reductase was determined as 2.3e-07 M; in test [3] it was 210000 nM.

In the case of `O=C1C[C@H](O)C[C@@H](/C=C/c2c(Cl)cccc2CC2CCCCC2)O1` [16 ac], the values for the IC50 (at HMG-CoA reductase; in test [3]) were 7.1e-08 M and 3200 nM, respectively.

For `O=C1C[C@H](O)C[C@@H](/C=C/c2ccccc2CCc2ccc(F)cc2)O1` [16 g], the values for the half-inhibitory concentration (IC50) (at HMG-CoA reductase; in test [3]) were 9e-07 M and 500000 nM, respectively.

On to `O=C1C[C@H](O)C[C@@H](/C=C/c2ccccc2CC2CCCCC2)O1` [16 j], for which the results for the IC50 (at HMG-CoA reductase; in test [3]) were 9e-08 M and 380000 nM, respectively.

For `O=C1C[C@H](O)C[C@@H](/C=C/c2ccccc2Cc2ccc(Cl)cc2)O1` [16 l], the IC50 on HMG-CoA reductase was determined as 8e-07 M.

As for `Cc1cccc(CCC2CCCCC2)c1/C=C/[C@@H]1C[C@@H](O)CC(=O)O1` [16 u], the IC50 stood at 6.5e-07 M on HMG-CoA reductase and 200000 nM in test [3].

As for `Cc1cccc(Cc2ccc(Cl)cc2)c1/C=C/[C@@H]1C[C@@H](O)CC(=O)O1` [16 y], the IC50 on HMG-CoA reductase came out at 2.8e-07 M.

Consider `O=C1C[C@H](O)C[C@@H](/C=C/c2c(Cl)cc(Cl)cc2CC2CCCCC2)O1` [16 z], for which the results for the IC50 (on HMG-CoA reductase; in test [3]) were 1.9e-08 M and 1900 nM, respectively.

In the case of `CC[C@H](C)C(=O)O[C@H]1CCC=C2C=C[C@H](C)[C@H](CC[C@@H]3C[C@@H](O)CC(=O)O3)[C@H]21` [Compactin], in test [4], the “inhibition of HMG-CoA reductase” value is “inhibition”.
